Assay: Aqueous solubility according to OECD 105

Compound	Solubility in water at 23° C.
2-hydroxy-2-sulfonatoacetic acid disodium salt	7%
O=C([O-])C(O)S(=O)(=O)[O-].[Zn+2] (centres unmarked) [Example 1, Zinc-Salt of 2-Hydroxy-2-Sulfonatoacetic Acid]	39%

— US10662150B2, “Sulfonic acid salt composition and use thereof for color stabilization” (L. BRÜGGEMANN GMBH & CO. KG, priority 2016, dated 2020)
